The values that follow come from paper PMC11832194, “Cystatin from Austrelaps superbus snake venom as a model for identifying potential inhibitors of Trypanosoma cruzi cruzain” (The Journal of Venomous Animals and Toxins Including …, 2025).

Where two headings read alike, the source gives them in different places. No end group written: not given here. Some results are limits rather than exact numbers.

The target in data set [1] is epimastigote forms of clone CL B5 of Trypanosoma cruzi. Put plainly: In vitro trypanocidal activity on epimastigotes (CPRG, β-galactosidase). The class given is cell-based. The following applies: T. cruzi CL B5 lacZ epimastigotes, 2.5 × 10^5 parasites/mL, 72 hours at 28°C, peptides 500-62.5 µM, CPRG read-out at 590 nm. On the procedure:
To assess the trypanocidal activity of the synthetic peptides, epimastigote forms of clone CL B5 of Trypanosoma cruzi, transfected with the Escherichia coli β-galactosidase gene (lacZ), were used. The parasites were cultivated at 28°C in liver infusion tryptose (LIT) medium, supplemented with 10% fetal bovine serum (FBS) and the antibiotics penicillin and streptomycin. About 200 µL of epimastigotes at 2.5 × 10^5 parasites/mL concentration were plated in a 96-well plate. The parasites were incubated at 28°C for 72 hours with different concentrations of peptides (500-62.5 µM). Then, 50 µL of chlorophenol red-β-D-galactopyranoside (CPRG) solution was added, reaching a final concentration of 200 µM. The plate was incubated again at 37°C for 4 hours, and absorbance was monitored at 590 nm using a spectrophotometer (Synergy H1 multi-mode BIOTEK). Benznidazole was used as a positive control. The half maximal inhibitory concentration (IC50) was determined using GraphPad Prism (v.6.01) software.

The subject of data set [2] is NCTC clone 929 fibroblasts. The data set is described as follows: In vitro cytotoxicity on fibroblasts (resazurin). The class given is cell-based, murine. The following applies: NCTC929 cells, 2 × 10^4 cells per well, 48 hours 37°C 5% CO2, peptides 500-62.5 µM, absorbance 570 and 600 nm. On the procedure:
In these experiments, NCTC clone 929 fibroblasts were cultured in a 96-well plate with 180 µL of minimal essential medium (MEM) supplemented with 10% FBS, penicillin and streptomycin antibiotics. About 2 × 10^4 cells per well were cultured and incubated at 37°C for 48 hours in a 5% CO2 environment with different concentrations of synthetic peptides (500-62.5 µM). Then, 20 µL of a resazurin solution was added, reaching a final concentration of 2 mM. The plate was incubated again at 37°C for 4 hours, and absorbance was monitored at 570 and 600 nm using a Synergy H1 multi-mode spectrophotometer (BIOTEK). GraphPad Prism software determined the half-maximal cytotoxic concentration (CC50) (v.6.01). The CC50 of the reference drug benznidazole was also determined to finally determine the selectivity index
(Alamar Blue is a resazurin reagent that responds to reducing activity.)

The next data set addresses T1, cruzain (Trypanosoma cruzi, UniProt P25779).
T1 construct: From 40 to 120 minutes, mature cruzain was obtained in a soluble and enzymatically active form; His tag (histidine tail); made in house; host or cells: E. coli BL21 DE3 (pET 21a (+) with the pro-cruzain gene)
Put plainly: Inhibition of cruzain enzymatic (proteolytic) activity, casein substrate. The class given is biochemical. To be noted: cruzain 50 μM, peptide 500 to 62.5 μM, 1% casein substrate, Tris-HCl 0.1 M pH 8, 37°C, absorbance 280 nm, read-out: I50(µM) ± SD, inhibition of cruzain proteolytic activity. The method, then: Cruzain at a final concentration of 50 μM was incubated for 30 minutes at 37°C with various concentrations of AsCystatin (50-6.25 μM). Subsequently, 1% casein substrate diluted in Tris-HCl 0.1 M, pH 8, was added. The mixture was incubated again for 30 minutes at 37°C, and the reaction was stopped by adding 250 μL of 20% Trichloroacetic Acid (TCA), followed by a 30-minute rest period at room temperature. Finally, the mixture was centrifuged at 10,000 × g for 15 minutes. Enzymatic activity inhibition was estimated by recording the absorbance of the supernatant at 280 nm using a microplate spectrophotometer (BioTek Eon). The concentration required to inhibit 50% of cruzain enzymatic activity was determined using GraphPad Prism 6.0 software.
The peptides designed, as mentioned in the previous section, were synthesized by AminoTech (São Paulo, Brazil). Subsequently, the ability of the synthetic peptides to inhibit cruzain enzymatic activity was assessed. For this procedure, different concentrations of each peptide (500 to 62.5 μM) were incubated with 50 μM cruzain, and the steps detailed in the section […] were carried out.

The mark [3] stands for this setting: read-out: IC50 (µM) ± SD, trypanocidal activity.

T1 sequence (P25779 123-337): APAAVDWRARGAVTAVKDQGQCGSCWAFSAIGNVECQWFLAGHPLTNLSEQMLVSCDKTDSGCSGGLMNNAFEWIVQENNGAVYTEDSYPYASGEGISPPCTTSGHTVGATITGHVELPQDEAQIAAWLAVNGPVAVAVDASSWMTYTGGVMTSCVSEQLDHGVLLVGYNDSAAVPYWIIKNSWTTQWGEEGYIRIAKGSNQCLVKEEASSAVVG

With KIPGGQVVTGPWK [Pep8], the IC50 in data set [1] (SD) stood at 471.3 ± 1.8 µM; on cruzain (SD), 281.5 ± 2.19 µM. Also, the “IC50 (µM) ± SD, cytotoxic activity” value in data set [2] is greater than 500 µM.
Regarding QSQVVTGAK [Pep3], the IC50 (in data set [1] (setting [3]); at cruzain) was greater than 500 µM throughout. Besides, in data set [2], the “IC50 (µM) ± SD, cytotoxic activity” value is greater than 500 µM.
Take QVVTG [Pep2]: the IC50 (in data set [1] (setting [3]); on cruzain) was greater than 500 µM in each case. Also, the “IC50 (µM) ± SD, cytotoxic activity” value in data set [2] is greater than 500 µM.
On to KGGLQVVTGAPWK [Pep7], for which the IC50 turned out to be 390.2 ± 2.1 µM in data set [1] (SD) and 388.5 ± 1.22 µM at cruzain (SD). The “IC50 (µM) ± SD, cytotoxic activity” value in data set [2] is recorded as greater than 500 µM.
In the case of IPGGLSK [Pep1], the IC50 (in data set [1] (setting [3]); on cruzain) was greater than 500 µM each time. Moreover, in data set [2], the “IC50 (µM) ± SD, cytotoxic activity” value was greater than 500 µM.
Take KGGLQVVTGPWK [Pep6]: the IC50 is greater than 500 µM in data set [1] (setting [3]) and 384.6 ± 0.77 µM at cruzain (SD). Further, in data set [2], the “IC50 (µM) ± SD, cytotoxic activity” value is recorded as greater than 500 µM.
Take GGLQVVTGPW [Pep5]: the IC50 in data set [1] (SD) amounted to 475.5 ± 1.65 µM; on cruzain (SD) it was 220 ± 0.48 µM. Moreover, the “IC50 (µM) ± SD, cytotoxic activity” value in data set [2] was greater than 500 µM.
“KQVVTGK [Pep4, linear peptide derived from AsCystatin with lysine residues at each end]”: the IC50 (in data set [1] (setting [3]); in the data set with cruzain) was greater than 500 µM each time. The “IC50 (µM) ± SD, cytotoxic activity” value in data set [2] is listed as greater than 500 µM.
